Test results as given in patent US11351185B2, “Use of isovalerylspiramycins as anti-cancer agents to inhibit metastasis” (priority 2020, dated 2022).
“Also recorded” adds a separate entry of the source.

Tests used:
[1] = tested on: glutathione-dependent peroxidases (SELH enzyme activity); assay: Glutathione peroxidase activity assay; assay type: cell-based; details: LN229 cells
From the text: Since glutathione peroxidase catalyzes the reduction of reactive oxidative species (ROS), the inventors assessed whether treatment with ISP I increased the generation of ROS in glioblastoma cell lines (LN229 and U251) and RCC cell lines (786-O and RCC4).
Glutathione peroxidase kit (Abcam, Cambridge, Mass. USA) was used to quantitate the activity of all of the glutathione-dependent peroxidases in live cells (2×10^6), which were harvested and homogenized with assay buffer provided in the kit. Then the supernatant was collected and incubated in accordance with the manufacturer's instructions. Absorbance at 340 nm was measured using the microplate reader mentioned above.

LN229-luc tumors = assay: Intracranial LN229-luc glioblastoma xenograft mouse model; assay type: in vivo, NSG mice
From the text: The inventors first assessed ISP I's anti-tumor activity in an intracranial mouse model (FIG. 11A). NSG mice were inoculated with 1×10^5 LN229-luc cells in the right-frontal cortex. After 7 days, intracranial tumor growth was confirmed via noninvasive in vivo bioluminescence imaging and mice were randomized into ISP I or DMSO (control) treatment groups.
Mice experiments were approved by the National Institute of Neurological Disorders and Stroke (NINDS) and National Cancer Institute (NCI) Animal Use and Care Committees. For intracranial xenografts establishment, NOD-Prkdc^scidII2rg^tmiWjl (NSG) mice (6-8 weeks old from the NCI-Frederick animal facility) were inoculated intracranially with 100,000 LN229-luc cells suspended in 2 μL Hank's Balanced Salt Solution (HBSS), a product of Crystalgen (Commack, N.Y. USA). After one week, luciferin signals were detected to confirm the survival of tumor cells in mice. The mice were assigned to the indicated groups according to the signal intensity, in order to keep the baseline balanced. ISP I was injected intraperitoneally daily at a dose of 66 mg/kg body weight for 24 days. The mice in control group were injected with the same volume of corn oil or saline. The viability of tumors was monitored every four days. […]

IOMM tumors = assay: IOMM meningioma subcutaneous xenograft mouse model; assay type: in vivo, Nude mice; details: 35 mg/kg i.p. daily; 18 days after treatment
Description: For subcutaneous xenografts, NSG mice (6-8 weeks old) from the NCI-Frederick animal facility and Jackson Lab (Bar Harbor, Me. USA) were injected with 5×10^6 to 1×10^7 cells subcutaneously in the flank. One week later, the tumor-bearing mice were randomly assigned to different groups and made the tumor volume baseline equivalent and treated with normal saline or Zenomycin (35 mg/kg) everyday intraperitoneally. Tumors were measured using a caliper, and volume was calculated.

SELH [2] = target: T1, SELH (Homo sapiens, UniProt Q8IZQ5); assay: Drug affinity responsive target stability (DARTS) assay; assay type: binding; set-up: endogenous in cells; host or cells: LN229; details: LN229 lysate; ISP I 40 μg/mL
T1 sequence (Q8IZQ5 1-122): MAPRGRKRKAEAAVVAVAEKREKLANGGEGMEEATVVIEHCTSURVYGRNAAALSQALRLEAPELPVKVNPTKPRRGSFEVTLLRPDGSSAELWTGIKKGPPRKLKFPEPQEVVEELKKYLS
Description: To identify ISP I's molecular target, the inventors performed drug affinity responsive target stability (DARTS) assay in LN229 cells.
The inventors discovered that the binding of ISP I to its target proteins temporarily locks them into a stable conformational structure, which prevents their recognition by proteases. After evading protease degradation, the identity of ISP I's target proteins was determined using mass spectroscopy.
DARTS assay data were taken to identify the target of ISP I in vitro. For this assay, the invenots used the protocol published by Lomenick et al., Proc. Nat'l Acad. Sci. USA 106: 21984 (2009). Briefly, LN229 cells were lysed with M-PER (Pierce) supplemented with protease and phosphatase inhibitors. After centrifugation at 14,000 rpm for 15 min, lysates were diluted to the same final volume and protein concentration with M-PER and were dissolved in TNC buffer [50 mM Tris-HCl (pH 8.0), 50 mM NaCl, 10 mM CaCl2)]. All steps were performed on ice or at 4° C. to help prevent premature protein degradation. […] Peptides were analyzed by LC/MS/MS on a Thermo LTQ-Orbitrap mass spectrometer with an Eksigent LC pump. For quantitative comparison of protein and peptide abundances, MS spectra were analyzed by means of the differential workflow of Rosetta Elucidator (Rosetta Inpharmatics).

SELH [3] = target: T1, SELH; assay: Cellular thermal shift assay (CETSA) / thermo-stability assay; assay type: binding; set-up: endogenous in cells; host or cells: LN229, 786-O; details: vs DMSO
From the text: Next, the inventors used a thermo-stability assay to confirm SELH was targeted by ISP I in LN229 and 786-O cell lines. The principle of the assay is based on altered protein thermal stabilization/destabilization due to ligand binding in living cells. […] (FIG. 5B and FIG. 6A). To verify further the specificity of ISP I's targeting of SELH, the inventors designed a surface plasmon resonance assay to assess the interaction of ISP I with SELH synthesized in bacteria.
CETSA experiments were performed to determine the ISP I-related ligand induced shifts. Intact and live cells in a 10-cm dish were harvested, washed and resuspended in PBS with protease inhibitor cocktail. Protein of the cells was extracted by freeze-thaw more than three times, using liquid nitrogen. The supernatant was centrifuged at 20, 000 g for 20 min at 4° C. Then the samples were aliquoted to several groups incubated with different concentrations of ISP I for 1 hour. After that, samples were aliquoted into PCR tubes and thereafter heated at gradient temperature ranging from 40° C. to 80° C. for 3 min. Then the samples were centrifuged again and resolved using 4-12% SDS-PAGE followed by western blot experiments.

Structure (SMILES): COC1C(O)CC(=O)OC(C)CC=CC=CC(OC2CCC(N(C)C)C(C)O2)C(C)CC(CC=O)C1OC1OC(C)C(OC2CC(C)(O)C(OC(=O)CC(C)C)C(C)O2)C(N(C)C)C1O (stereo not shown) [ISP I, 4″-isolvalerylspiramycin I]
- glutathione peroxidase activity [1]: decrease, in a dose-dependent manner, of SELH enzyme activity; also recorded: significantly reduced glutathione peroxidase activity
- tumor growth / burden (bioluminescence imaging) (LN229-luc tumors; 66 mg/kg body weight i.p. every day): reduced LN229-luc tumor burden compared with the untreated group; also recorded: significantly reduced tumor growth
- response in tumor-derived bioluminescence images (LN229-luc tumors; three mice, day 24, 66 mg/kg i.p. daily): complete response
- tumor size, weight and burden (IOMM tumors): reduced IOMM tumor burden; also recorded: significantly reduced tumor size and weight
- protein protected from protease (target identification by mass spectroscopy) (SELH [2]): SELH was the most abundant primary protein present
- thermal stabilisation of SELH (western blot) (SELH [3]; 786-O cells): ISP I-protected SELH was observed along with a rise in temperature; also recorded: protective effect of ISP I on SELH was present over a range of increasing temperatures
- thermal stabilisation of SELH (western blot) (SELH [3]; LN229 cells): ISP I-protected SELH was observed along with the rise of temperature; also recorded: protective effect of ISP I on SELH was present over a range of increasing temperatures
